ChEMBL document CHEMBL1201862, “PubChem BioAssay data set” (2004)
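Tested at 5 concentrations; 48 h exposure; 96-well plates; endpoints linearly interpolated, else capped at highest concentration. GI50 = concentration required for 50% inhibition of growth.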 Active and inactive are the calls of the source. No stated cut-off is given here; in the data, active = GI50 up to about 1.1 µM and inactive = higher. Where a SMILES comes first, the peptide text is derived from it. [ ]: non-standard residue; d: D form. The star is where a group is joined. ξ: configuration not given here. NMeF = CN[CH](Cc1ccccc1)C(=O)O; ξNMe2Val = CC(C)C(C(=O)*)N(C)C; NMeV = CN[CH](C(=O)O)C(C)C; OtBu = CC(C)(C)O*

Columns and labels:
Assay in all cases: NCI anticancer screen, dose series, 48 h
UO-31 = tested on: UO-31
HCC 2998 = tested on: HCC 2998
TK-10 = tested on: TK-10
HOP-62 = tested on: HOP-62
U-251 = tested on: U-251
OVCAR-8 = tested on: OVCAR-8
SNB-19 = tested on: SNB-19
M14 = tested on: M14
SF-295 = tested on: SF-295
LOX IMVI = tested on: LOX IMVI
OVCAR-3 = tested on: OVCAR-3
SN12C = tested on: SN12C
A498 = tested on: A498
786-0 = tested on: 786-0
HL-60 = tested on: HL-60
NCI-H522 = tested on: NCI-H522
HOP-92 = tested on: HOP-92
SK-MEL-28 = tested on: SK-MEL-28
OVCAR-5 = tested on: OVCAR-5

Measured: GI50

NC(=O)N/N=C(\CC1OC(=O)c2ccccc21)c1ccc([N+](=O)[O-])cc1 (stereo not drawn)
inactive: UO-31 76.6 µM | HCC 2998 18 µM | TK-10 > 100 µM | HOP-62 22.7 µM | U-251 17.5 µM | OVCAR-8 > 10 µM | SNB-19 20.7 µM | M14 34 µM | SF-295 68.4 µM | LOX IMVI 17 µM | OVCAR-3 49.1 µM | SN12C 31 µM | A498 82 µM | 786-0 17.6 µM | HL-60 26.3 µM

O=c1cc(-c2ccccc2)oc2cc(OCCCCCCCCCCOc3ccc4c(=O)cc(-c5ccccc5)oc4c3)ccc12
inactive: NCI-H522 > 100 µM | HCC 2998 > 100 µM | HOP-62 > 100 µM | U-251 > 100 µM | OVCAR-8 > 100 µM | SNB-19 > 100 µM | HOP-92 > 100 µM | SK-MEL-28 > 100 µM | M14 > 100 µM | SF-295 > 100 µM | OVCAR-3 > 100 µM | SN12C 42.5 µM | OVCAR-5 > 100 µM | 786-0 > 100 µM | HL-60 > 100 µM

CC(C)C(C(=O)N(C)C(Cc1ccccc1)C(=O)N(C)C(C(=O)N(C)C(C(=O)N1CCCC1C(=O)OC(C)(C)C)C(C)C)C(C)C)N(C)C (stereo not drawn) (ξNMe2Val-[NMeF][NMeV][NMeV]P-OtBu; configuration not given here)
inactive: UO-31 86.7 µM | NCI-H522 17.4 µM | HCC 2998 22.8 µM | TK-10 > 100 µM | HOP-62 64.4 µM | U-251 > 10 µM | OVCAR-8 97.3 µM | SNB-19 58.3 µM | M14 20 µM | SF-295 60.8 µM | LOX IMVI 22.9 µM | OVCAR-3 62.5 µM | SN12C 50.1 µM | 786-0 52.7 µM | HL-60 37.2 µM

CC(=O)NC1=C(NCC(C)C)C(=O)c2ccccc2C1=O
inactive: UO-31 18 µM | HCC 2998 > 100 µM | TK-10 20.7 µM | HOP-62 89.5 µM | U-251 40.2 µM | OVCAR-8 22.1 µM | SNB-19 38.3 µM | HOP-92 14.3 µM | SK-MEL-28 17.1 µM | M14 18.2 µM | SF-295 37.9 µM | LOX IMVI 15.5 µM | OVCAR-3 16.6 µM | SN12C 16.9 µM | OVCAR-5 65.9 µM | A498 83.2 µM | 786-0 14.6 µM | HL-60 2.76 µM

CC(C)N1CCC2(CC1)NNc1ncccc1-n1cccc12
inactive: UO-31 > 100 µM | NCI-H522 > 100 µM | HCC 2998 > 100 µM | TK-10 > 100 µM | HOP-62 > 100 µM | U-251 > 100 µM | OVCAR-8 > 100 µM | SNB-19 > 100 µM | SK-MEL-28 > 100 µM | M14 > 100 µM | SF-295 > 100 µM | LOX IMVI > 100 µM | OVCAR-3 > 100 µM | SN12C > 100 µM | OVCAR-5 > 100 µM | 786-0 > 100 µM | HL-60 > 100 µM

O=C1C2[C@@H](C(=O)N1c1ccc(Br)cc1)C13C(=CC2([N+](=O)[O-])[C@@H]2C(=O)N(c4ccc(Br)cc4)C(=O)[C@@H]21)c1ccccc1N3c1ccccc1 (stereo partly drawn)
inactive: UO-31 18.9 µM | NCI-H522 > 100 µM | HCC 2998 > 100 µM | TK-10 > 100 µM | U-251 > 100 µM | OVCAR-8 > 100 µM | SNB-19 > 100 µM | HOP-92 > 100 µM | SK-MEL-28 > 100 µM | M14 > 100 µM | SF-295 > 100 µM | LOX IMVI > 100 µM | OVCAR-3 > 100 µM | SN12C > 100 µM | OVCAR-5 > 100 µM | 786-0 13.7 µM | HL-60 > 100 µM

COc1ccc(/C(Cl)=C(\c2ccc(OCCN(C)C)cc2)c2ccc(OC(=O)C(C)(C)C)cc2)cc1
inactive: UO-31 6.95 µM | NCI-H522 14.8 µM | HCC 2998 15.7 µM | TK-10 18.1 µM | HOP-62 16.1 µM | U-251 13.6 µM | OVCAR-8 15.8 µM | SNB-19 16 µM | HOP-92 18.1 µM | SK-MEL-28 11.1 µM | M14 3.58 µM | SF-295 14.8 µM | LOX IMVI 6.61 µM | OVCAR-3 15.2 µM | SN12C 13.4 µM | OVCAR-5 15.7 µM | 786-0 10.4 µM | HL-60 5.97 µM

C/C(=C1/CCC/C(=C(/C)c2ccccc2)C1=O)c1ccccc1
inactive: UO-31 44.6 µM | NCI-H522 33.6 µM | HCC 2998 46.3 µM | TK-10 > 100 µM | U-251 25.3 µM | OVCAR-8 41.7 µM | SNB-19 > 100 µM | HOP-92 38.8 µM | SK-MEL-28 36.3 µM | M14 33.3 µM | SF-295 38.1 µM | LOX IMVI 28.8 µM | OVCAR-3 64.4 µM | SN12C 50.7 µM | OVCAR-5 27.2 µM | 786-0 44.4 µM | HL-60 10.7 µM

CN1CCN(C(=S)N(C(=O)c2ccco2)c2ccccc2)CC1
inactive: UO-31 > 100 µM | NCI-H522 > 100 µM | HCC 2998 > 100 µM | TK-10 > 100 µM | U-251 > 100 µM | OVCAR-8 > 100 µM | SNB-19 > 100 µM | HOP-92 > 100 µM | SK-MEL-28 > 100 µM | M14 > 100 µM | SF-295 > 100 µM | LOX IMVI > 100 µM | OVCAR-3 > 100 µM | SN12C > 100 µM | OVCAR-5 > 100 µM | 786-0 > 100 µM | HL-60 > 100 µM

COC(=O)C12C3C4C1C1C2C3C41I (stereo not drawn)
inactive: UO-31 > 100 µM | HCC 2998 > 100 µM | TK-10 > 100 µM | HOP-62 > 100 µM | U-251 > 100 µM | OVCAR-8 > 100 µM | SNB-19 > 100 µM | HOP-92 > 100 µM | SK-MEL-28 > 100 µM | M14 > 100 µM | SF-295 > 100 µM | OVCAR-3 > 100 µM | SN12C > 100 µM | OVCAR-5 > 100 µM | A498 > 100 µM | 786-0 > 100 µM | HL-60 > 100 µM

Cc1ccccc1-c1cc(=O)c2cc(C)c(C)c(C(=O)O)c2o1
inactive: UO-31 > 100 µM | NCI-H522 > 100 µM | HCC 2998 > 100 µM | TK-10 > 100 µM | HOP-62 > 100 µM | U-251 > 100 µM | OVCAR-8 > 100 µM | SNB-19 > 100 µM | HOP-92 > 100 µM | SK-MEL-28 > 100 µM | M14 > 100 µM | SF-295 > 100 µM | LOX IMVI > 100 µM | OVCAR-3 > 100 µM | SN12C > 100 µM | OVCAR-5 > 100 µM | 786-0 > 100 µM | HL-60 > 100 µM

NCCCSCC(=O)O
inactive: UO-31 > 100 µM | NCI-H522 > 100 µM | HCC 2998 > 100 µM | TK-10 > 100 µM | U-251 > 100 µM | OVCAR-8 > 100 µM | SNB-19 > 100 µM | HOP-92 > 100 µM | SK-MEL-28 > 100 µM | SF-295 > 100 µM | OVCAR-3 > 100 µM | SN12C > 100 µM | OVCAR-5 > 100 µM | 786-0 > 100 µM
